In patent publication US10556898B2, “Indazolyl-1,2,4-thiadiazolamines and related compounds for inhibition of Rho-associated protein kinase and the treatment of disease” (Lycera Corporation, priority 2016, dated 2020):
Where two headings read alike, the source gives them in different places.

Tests used:
ROCK2 = molecular target: T1, ROCK2 (Homo sapiens, UniProt O75116); test: Cell-Based Assay, ROCK2 (HAP1 knockout cells, phospho-MYPT1 Thr853 ELISA); conditions: class symbols, read-out: Results from Cell-Based Assay IC50 (μM) ROCK2
T1 construct: endogenous in cells; host or cells: HAP1 knockout cells
T1 sequence (O75116 whole entry): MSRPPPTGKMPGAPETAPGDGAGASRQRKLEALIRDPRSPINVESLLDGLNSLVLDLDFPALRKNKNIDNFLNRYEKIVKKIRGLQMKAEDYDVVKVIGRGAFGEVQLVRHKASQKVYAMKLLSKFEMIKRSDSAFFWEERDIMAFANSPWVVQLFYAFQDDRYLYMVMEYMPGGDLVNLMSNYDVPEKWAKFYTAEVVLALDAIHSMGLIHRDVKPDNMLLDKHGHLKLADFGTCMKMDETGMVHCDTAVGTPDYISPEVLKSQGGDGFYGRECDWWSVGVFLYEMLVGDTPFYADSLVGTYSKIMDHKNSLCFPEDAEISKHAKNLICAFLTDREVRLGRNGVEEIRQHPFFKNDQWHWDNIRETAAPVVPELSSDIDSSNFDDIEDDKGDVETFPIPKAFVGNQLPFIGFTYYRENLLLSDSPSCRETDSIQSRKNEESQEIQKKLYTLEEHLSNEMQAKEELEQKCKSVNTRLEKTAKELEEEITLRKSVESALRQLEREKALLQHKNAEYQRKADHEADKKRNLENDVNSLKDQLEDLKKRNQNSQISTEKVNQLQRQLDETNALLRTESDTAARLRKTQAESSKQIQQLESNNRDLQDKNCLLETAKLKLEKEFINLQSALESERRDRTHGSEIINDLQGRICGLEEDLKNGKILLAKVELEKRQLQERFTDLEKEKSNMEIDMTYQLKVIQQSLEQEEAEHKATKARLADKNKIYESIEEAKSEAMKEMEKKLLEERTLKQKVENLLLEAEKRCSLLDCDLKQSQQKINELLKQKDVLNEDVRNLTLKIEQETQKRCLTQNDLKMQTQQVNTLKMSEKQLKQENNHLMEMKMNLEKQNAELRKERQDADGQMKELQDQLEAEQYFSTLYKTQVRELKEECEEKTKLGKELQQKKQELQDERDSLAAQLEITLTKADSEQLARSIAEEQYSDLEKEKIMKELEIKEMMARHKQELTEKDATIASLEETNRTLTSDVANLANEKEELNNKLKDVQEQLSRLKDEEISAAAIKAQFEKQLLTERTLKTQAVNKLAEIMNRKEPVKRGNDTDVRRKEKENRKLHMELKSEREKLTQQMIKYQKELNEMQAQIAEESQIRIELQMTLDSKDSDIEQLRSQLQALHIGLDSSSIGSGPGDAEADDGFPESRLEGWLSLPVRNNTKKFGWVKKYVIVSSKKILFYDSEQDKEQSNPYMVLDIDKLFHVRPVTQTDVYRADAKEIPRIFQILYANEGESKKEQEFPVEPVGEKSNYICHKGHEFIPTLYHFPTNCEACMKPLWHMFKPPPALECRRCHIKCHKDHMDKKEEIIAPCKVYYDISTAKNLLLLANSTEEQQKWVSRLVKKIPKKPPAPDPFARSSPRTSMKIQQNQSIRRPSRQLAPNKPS

[1] = molecular target: T2, GST-tagged human ROCK1 catalytic domain 1-477 (Homo sapiens, UniProt Q13464); test: Isolated Enzyme Assay, ROCK1 (LANCE Ultra ULight-CREBtide FRET); format: biochemical; conditions: isolated enzyme assay; 30 μM highest concentration tested; read-out: Results from Isolated Enzyme Assay IC50 (μM) ROCK1
T2 construct: human ROCK1 catalytic domain 1-477 from Carna Biosciences (cat #01-109); purchased Carna Biosciences 01-109; host or cells: baculovirus expression system
T2 sequence (Q13464 1-477): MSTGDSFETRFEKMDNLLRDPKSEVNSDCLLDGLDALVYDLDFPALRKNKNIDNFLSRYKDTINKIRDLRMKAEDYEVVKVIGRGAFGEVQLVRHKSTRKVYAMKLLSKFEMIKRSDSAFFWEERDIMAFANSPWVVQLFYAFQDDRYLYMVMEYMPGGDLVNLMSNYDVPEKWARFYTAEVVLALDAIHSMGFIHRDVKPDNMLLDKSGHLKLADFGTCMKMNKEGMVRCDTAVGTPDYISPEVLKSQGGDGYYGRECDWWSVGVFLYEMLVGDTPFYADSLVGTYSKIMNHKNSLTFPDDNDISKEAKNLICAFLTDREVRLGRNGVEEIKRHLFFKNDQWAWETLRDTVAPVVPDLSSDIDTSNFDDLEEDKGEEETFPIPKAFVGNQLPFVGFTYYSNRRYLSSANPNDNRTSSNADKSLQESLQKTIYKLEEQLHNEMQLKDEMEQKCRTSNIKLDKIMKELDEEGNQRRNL
Summary of the method: (§1)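 Baculovirus-expressed constitutively active ROCK1 or ROCK2 (2 nM) incubated 90 min at room temperature with 50 nM ULight-CREBtide and compound (0.5% DMSO) in Tris pH 7.5, MgCl2, EGTA, Tween-20, DTT. EDTA-stopped; phospho-substrate detected by Eu-anti-phospho-CREB TR-FRET after 60 min; IC50 by non-linear regression.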

[2] = molecular target: T3, GST-tagged human ROCK2 catalytic domain 1-553 (Homo sapiens, UniProt O75116); test: Isolated Enzyme Assay, ROCK2 (LANCE Ultra ULight-CREBtide FRET); format: biochemical; conditions: isolated enzyme assay; 30 μM highest concentration tested; read-out: Results from Isolated Enzyme Assay IC50 (μM) ROCK2
T3 construct: GST-tagged human ROCK2 catalytic domain 1-553 from Carna Biosciences (Cat #01-110); purchased Carna Biosciences 01-110; host or cells: baculovirus expression system
T3 sequence (O75116 1-553): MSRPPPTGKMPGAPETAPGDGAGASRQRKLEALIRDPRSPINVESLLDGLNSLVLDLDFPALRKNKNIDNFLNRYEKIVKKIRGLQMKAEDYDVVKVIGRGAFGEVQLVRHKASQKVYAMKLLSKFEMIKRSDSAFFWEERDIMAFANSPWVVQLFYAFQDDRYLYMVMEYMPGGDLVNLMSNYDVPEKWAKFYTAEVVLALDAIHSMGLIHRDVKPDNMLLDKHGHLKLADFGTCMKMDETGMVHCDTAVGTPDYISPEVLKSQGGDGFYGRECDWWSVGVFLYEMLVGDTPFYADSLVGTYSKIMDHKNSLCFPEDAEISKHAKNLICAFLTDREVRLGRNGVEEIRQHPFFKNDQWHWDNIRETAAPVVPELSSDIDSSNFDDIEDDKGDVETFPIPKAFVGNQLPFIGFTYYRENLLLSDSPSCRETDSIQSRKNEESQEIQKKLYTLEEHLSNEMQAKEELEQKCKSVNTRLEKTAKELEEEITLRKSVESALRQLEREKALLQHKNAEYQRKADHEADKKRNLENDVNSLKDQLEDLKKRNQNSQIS
Summary of the method: as §1

ROCK1 = molecular target: T4, ROCK1 (Homo sapiens, UniProt Q13464); test: Cell-Based Assay, ROCK1 (HAP1 knockout cells, phospho-MYPT1 Thr853 ELISA); conditions: read-out: Results from Cell-Based Assay IC50 (μM) ROCK1
T4 construct: endogenous in cells; host or cells: HAP1 knockout cells
T4 sequence (Q13464 whole entry): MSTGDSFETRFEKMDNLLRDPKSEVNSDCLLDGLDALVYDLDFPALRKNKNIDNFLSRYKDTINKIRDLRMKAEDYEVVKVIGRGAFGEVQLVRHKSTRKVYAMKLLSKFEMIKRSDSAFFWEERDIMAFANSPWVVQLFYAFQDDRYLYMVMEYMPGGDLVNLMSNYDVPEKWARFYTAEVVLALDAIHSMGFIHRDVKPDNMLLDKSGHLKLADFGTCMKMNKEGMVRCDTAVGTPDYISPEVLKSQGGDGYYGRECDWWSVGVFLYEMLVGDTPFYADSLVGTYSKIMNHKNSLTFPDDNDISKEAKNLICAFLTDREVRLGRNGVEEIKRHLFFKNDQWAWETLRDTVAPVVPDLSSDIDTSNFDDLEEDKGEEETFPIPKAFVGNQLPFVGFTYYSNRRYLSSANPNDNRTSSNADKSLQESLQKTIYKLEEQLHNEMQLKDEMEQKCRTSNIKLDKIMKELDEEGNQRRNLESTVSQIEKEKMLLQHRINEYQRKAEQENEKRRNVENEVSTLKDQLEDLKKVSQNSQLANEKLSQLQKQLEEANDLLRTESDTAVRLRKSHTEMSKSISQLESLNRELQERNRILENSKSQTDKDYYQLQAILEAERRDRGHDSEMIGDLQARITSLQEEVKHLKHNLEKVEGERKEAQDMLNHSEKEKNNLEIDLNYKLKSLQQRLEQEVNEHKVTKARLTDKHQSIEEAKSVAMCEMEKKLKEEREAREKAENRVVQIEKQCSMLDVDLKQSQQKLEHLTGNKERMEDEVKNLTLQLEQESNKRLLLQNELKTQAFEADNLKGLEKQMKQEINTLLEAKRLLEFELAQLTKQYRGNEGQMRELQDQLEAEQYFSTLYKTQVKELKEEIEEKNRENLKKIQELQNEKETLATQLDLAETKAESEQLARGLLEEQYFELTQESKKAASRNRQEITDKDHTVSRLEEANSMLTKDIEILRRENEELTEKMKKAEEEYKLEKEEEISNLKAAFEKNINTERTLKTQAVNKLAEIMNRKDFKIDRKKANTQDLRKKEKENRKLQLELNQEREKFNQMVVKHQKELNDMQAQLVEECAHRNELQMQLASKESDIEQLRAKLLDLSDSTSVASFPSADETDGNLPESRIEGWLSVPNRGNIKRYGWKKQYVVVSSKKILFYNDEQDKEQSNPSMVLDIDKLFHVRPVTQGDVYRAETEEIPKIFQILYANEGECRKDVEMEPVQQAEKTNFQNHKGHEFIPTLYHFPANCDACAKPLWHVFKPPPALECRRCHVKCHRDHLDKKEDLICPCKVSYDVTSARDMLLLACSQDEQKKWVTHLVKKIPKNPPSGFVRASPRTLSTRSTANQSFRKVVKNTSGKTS
Procedure: Part II—Procedure for Determining ROCK Inhibition Ability of Test Compounds Using a Cell-Base Assay
The Cell-Based Assay for determining ROCK inhibition ability of test compounds utilized a genetically modified HAP1 cell line engineered to eliminate expression of either ROCK1 or ROCK2. In the procedure, HAP1 knockout cells are grown in Iscove's Modified Dulbecco's Medium that is additionally supplemented with 10% fetal bovine and 1x antibiotic-antimycotic mixture. Cells are plated in 96 well tissue culture plates at 1×10^5 cells/well (100 μL, of cells at 1×10^6/mL). Test compounds are solubilized in DMSO and diluted into the same media used to grow the cells. A 100 μL, aliquot of each compound dilution in media is added to each well containing the HAP1 cells and incubated at 37° C. for 30 minutes. Following compound incubation, the cells are pelleted by centrifugation at 1800 rpm for 5 minutes at 4° C. Media is removed from the cell pellet and the cells lysed and de-salted. An 80 μL, aliquot of each cell lysate is added to a single well of a 96-well high binding ELISA plate which has been pre-coated with a MYPT1 capture antibody and incubated at 4° C. overnight. The following day the ELISA plate is washed 4× with 0.05% Tween-20 in PBS. After washing, an anti-phospho-MYPT1 (Thr853) antibody is added and allowed to bind for 1 hour at room temperature. The wash step is repeated, and then an anti-rabbit HRP detection antibody is added and allowed to incubate at room temperature for 1 hour. The wash step is then repeated and 100 μL/well 1-Step™ Ultra TMB substrate is added to the ELISA plate and allowed to develop for approximately 5 minutes. The reaction is stopped by addition of H2SO4. Absorbance is read at 450 OD. Data is analyzed using GraphPad Prism software to calculate the 50% inhibitory concentration of test compound (IC50).

[3] = rat stroke model; cited from earlier work
[4] = porcine model of IL-1 beta-induced coronary stenosis; cited from earlier work

SMILES | IC50 (ROCK2) | IC50 [1] | IC50 [2] | IC50 (ROCK1; numeric bound) | IC50 (ROCK1; class symbols) | infarct size and neurologic deficit [3] | coronary stenosis [4]
Cn1ccnc1C(=O)Nc1cccc(-c2nsc(Nc3ccc4[nH]ncc4c3Cl)n2)c1 [IV-73] | < 1 µM | < 1 µM | < 1 µM | > 10 µM | – | – | –
O=C(Nc1cccc(-c2nsc(Nc3ccc4[nH]ncc4c3Cl)n2)c1)c1ccccn1 [IV-74] | < 1 µM | < 1 µM | < 1 µM | – | 1 to 15 µM | – | –
O=C(Nc1cccc(-c2nsc(Nc3ccc4[nH]ncc4c3Cl)n2)c1)c1cc[nH]n1 [IV-75] | < 1 µM | < 1 µM | < 1 µM | > 10 µM | – | – | –
Cc1cc(C(=O)Nc2cccc(-c3nsc(Nc4ccc5[nH]ncc5c4Cl)n3)c2)n[nH]1 [IV-76] | < 1 µM | < 1 µM | < 1 µM | > 10 µM | – | – | –
Cn1ccc(C(=O)Nc2cccc(-c3nsc(Nc4ccc5[nH]ncc5c4Cl)n3)c2)n1 [IV-77] | < 1 µM | < 1 µM | < 1 µM | > 10 µM | – | – | –
Cn1cc(C(=O)Nc2cccc(-c3nsc(Nc4ccc5[nH]ncc5c4Cl)n3)c2)cn1 [IV-78] | < 1 µM | < 1 µM | < 1 µM | > 10 µM | – | – | –
O=C(NCC(F)(F)F)c1cccc(-c2nsc(Nc3ccc4[nH]ncc4c3Cl)n2)c1 [IV-81] | < 1 µM | < 1 µM | < 1 µM | > 10 µM | – | – | –
Cn1cnc2c(-c3nsc(Nc4ccc5[nH]ncc5c4Cl)n3)cccc21 [IV-82] | < 1 µM | < 1 µM | 1 to 15 µM | – | 1 to 15 µM | – | –
O=C1CCCN1c1cccc(-c2nsc(Nc3ccc4[nH]ncc4c3Cl)n2)c1 [IV-83] | < 1 µM | < 1 µM | < 1 µM | – | 1 to 15 µM | – | –
CC(C)N1CCN(c2cc(-c3nsc(Nc4ccc5[nH]ncc5c4Cl)n3)ccn2)C1=O [IV-90] | < 1 µM | < 1 µM | < 1 µM | – | 1 to 15 µM | – | –
CNC(=O)c1cccc(-c2nsc(Nc3ccc4[nH]ncc4c3Cl)n2)c1 [IV-107] | < 1 µM | < 1 µM | < 1 µM | > 10 µM | – | – | –
O=S(=O)(c1cccc2cnccc12)N1CCCNCC1 [fasudil] | – | – | – | – | – | reduce both the infarct size and neurologic deficit | progressively reduce coronary stenosis
